Read-outs that look alike come from different tables or passages of the source.
Tests used:
[1] = In vitro permeation (flux) test, modified Franz vertical diffusion cell, Strat-M synthetic membrane; format: in vitro ADME
Protocol: For in vitro permeation testing, the prepared transdermal formulations in the following examples were subjected to a flux (in vitro permeation) test as follows with either full-split thickness human cadaver skin or Strat-M® synthetic membrane. The full-split thickness human cadaver skin is prepared by thawing at room temperature in DI water, after which it is placed into a 55° C. water bath for a few minutes. After removal from elevated temperature water bath, the stratum corneum layer is removed, inspected, blotted, and cut into suitable sized samples for placement on a modified Franz vertical diffusion cell. Meanwhile, the Strat-M® synthetic membrane is utilized as instructed by the Millipore-Sigma instruction guide on its use. The patches are die cut to a 5/16″ diameter (˜0.5 cm^2) and affixed to the skin with use of an overlay to secure patch to skin. Receiver media is either standard saline (0.9% NaCl in DI water) or a fixed concentration (1%-5%) of povidone in DI Water. Sample volume is 5 mL, Franz cell volume is 5 mL. […] Actual patch size is 0.5 cm^2 with an effective flux area of about 0.6 cm^2. Aliquots taken are analyzed by HPLC method for each independent API. Typically, 3-5 replicates per formulation are performed to ensure adequate statistical significance is obtained for each study.

[2] = cited from earlier work; for Water Sol: Table 2
[3] = format: in vitro ADME
[4] = Drug product stability: potency and degradation products by relative retention time, liquid chromatography; format: physicochemical; conditions: with panthenol and/or other humectants; long term stability studies at room temperature and above 40° C.
From the text: In Example 9, the effect of the incorporation of a humectant (e.g., panthenol) into the molecular solid suspension on the API stability and permeability is shown. […] In the tables below, TDS-009 includes 8 wt. % LLD, 5 wt. % Panthenol, 10% Poloxamer P407, 5 wt. % crospovidone and 22.5 wt. % Brij L4 in the presence of 49.5 wt. % DuroTak 87-4098 acrylic PSA, while TDS-011 is the same as TDS-009 without presence of 5 wt. % Panthenol, making up for the 5 wt. % difference with additional DuroTak 87-4098 acrylic PSA for a total of 54.5 wt. %.
Generally, the incorporation of panthenol into the molecular solid suspension results in a 10-fold reduction in hydrolytic degradation.
Each of the above formulations was protected from light, but not from ambient storage conditions of about 21° C. and ambient relative humidity.

Q: For `Cc1cc2c(s1)Nc1ccccc1N=C2N1CCN(C)CC1` [olanzapine, 2-methyl-10-(4-methyl-1-piperazinyl)-4H-thieno-[2,3-b][1,5]benzo-diazepine], which depletion ([1]; 5 wt. % olanzapine molecular solid suspension with Laureth-4, after about 24 hours) is on record?
A: 100%

Q: And the “increase in availability (average flux) at about 8-hour time point” value ([1]; 5 wt. % olanzapine molecular solid suspension with Laureth-4 vs comparators, FIG. 3)?
A: about 16 ×

Q: What about the “increase in slope for cumulative flux” value ([1]; 5 wt. % olanzapine, 5 wt. % Kollidon CLM, 20 wt. % Laureth-4, 70 wt. % Durotak 87-4098 vs formulations without Laureth-4, FIG. 4) of the same molecule?
A: approximately 1.2 ×

Q: And the depletion ([1]; other two olanzapine formulations (no Laureth-4), over 72 hours)?
A: 60%

Q: For `Clc1cccc(Cl)c1N=C1NCCN1` [Clonidine], which “Water Sol” value [2] is on record?
A: ~1 mg/mL

Q: With `CN1C2CCCC1CC(NC(=O)c1nn(C)c3ccccc13)C2` (centres unmarked) [Granisetron] as the molecule, how does the “Water Sol” value [2] read?
A: ~40 mg/mL

Q: And the water solubility [2]?
A: less than 0.1 mg/mL

Q: Which water solubility [2] does the source give for `O=C1CC[C@H](N2Cc3c(OCc4ccc(CN5CCOCC5)cc4)cccc3C2=O)C(=O)N1` [iberdomide] here?
A: less than 2 mg/mL

Q: For `Nc1cccc2c1CN(C1CCC(=O)NC1=O)C2=O` (centres unmarked) [lenalidomide], which average flux ([3]; formulations with greater than about 15 wt. % O3 vs about 15 wt. % or less, FIG. 18) is on record?
A: significantly higher

Q: What about the average flux ([3]; nonionic surfactants with HLB below 12 (O3, O5) vs HLB above 12 (O10, O20), FIG. 20) of the same molecule?
A: increased

Q: What about the observed flux rate ([1]; 4 wt. % drug formulation, FIGS. 13-14) of the same molecule?
A: 2.4 μg/cm^2/hr

Q: What about the average flux rate ([1]; 6 wt. % lenalidomide without panthenol, FIGS. 13-14) of the same molecule?
A: 4.2 μg/cm^2/hr

Q: What about the average flux rate ([1]; 6 wt. % lenalidomide without panthenol, FIGS. 15-16) of the same molecule?
A: 5.1 μg/cm^2/hr

Q: And the “overall permeation relative to same formulation excluding panthenol” value ([1]; 6 wt. % lenalidomide, 5 wt. % panthenol, FIGS. 13-14)?
A: about 1.2 times

Q: What about the “overall permeation relative to same formulation excluding panthenol” value ([1]; 6 wt. % lenalidomide, 5 wt. % panthenol, FIGS. 15-16) of the same molecule?
A: about 1.5 times

Q: And the average flux rate ([1]; 6 wt. % lenalidomide, 5 wt. % panthenol, after about the 8 hour time point, FIGS. 13-14)?
A: 5.4 μg/cm^2/hr

Q: What about the average flux rate ([1]; 6 wt. % lenalidomide, 5 wt. % panthenol, after about the 8 hour time point, FIGS. 15-16) of the same molecule?
A: 7.5 μg/cm^2/hr

Q: What about the average flux rate ([1]; 10 wt. % lenalidomide without panthenol, FIGS. 11-12) of the same molecule?
A: 3.4 μg/cm^2/hr

Q: What about the “overall permeation relative to same formulation excluding panthenol” value ([1]; 10 wt. % lenalidomide, 5 wt. % panthenol, FIGS. 11-12) of the same molecule?
A: about 1.4 times

Q: And the average flux rate ([1]; 10 wt. % lenalidomide, 5 wt. % panthenol, after about the 8 hour time point, FIGS. 11-12)?
A: 4.7 μg/cm^2/hr

Q: What about the average flux ([1]; HLB below 12 surfactants (O3, O5) with poloxamer P407 vs without poloxamer, FIG. 21) of the same molecule?
A: increased

Q: And the average flux ([1]; at 24 hours, with both humectant and high HLB nonionic surfactant (panthenol and P407), low HLB surfactant O3, FIG. 17)?
A: about 6 μg/cm^2/hr

Q: And the average flux ([1]; formulations with greater than about 15 wt. % O3 vs about 15 wt. % or less, FIG. 19)?
A: significantly higher

Q: What about the hydrolytic degradation [4] of the same molecule?
A: inhibits hydrolytic degradation

Q: With `C[C@@H]1C[C@H]2[C@@H]3CCC4=CC(=O)C=C[C@]4(C)[C@@]3(F)[C@@H](O)C[C@]2(C)[C@@]1(O)C(=O)CO` [dexamethasone] as the molecule, how does the “increase in slope (average flux and cumulative flux)” value ([1]; 5 wt. % dexamethasone, 5 wt. % Kollidon CLM, 20 wt. % Laureth-4, 70 wt. % Durotak 87-4098 vs comparators, FIGS. 9-10) read?
A: almost an infinite increase

Q: For `C#C[C@]1(O)CC[C@H]2[C@@H]3CCc4cc(O)ccc4[C@H]3CC[C@@]21C` [Ethinyl Estradiol], which “Water Sol” value [2] is on record?
A: ~0.1 mg/mL
